# Laboratory results as given in paper PMC2756574, “Crystal Structures of Multidrug Binding Protein TtgR in Complex with Antibiotics and Plant Antimicrobials” (Journal of Molecular Biology, 2007).
# Assays:
# [1] = biological target: T1, TtgR (Pseudomonas putida, UniProt Q9AIU0); experiment: isothermal titration calorimetry; assay type: binding
# T1 construct: full-length, ttgR in pET29a+, expressed in E. coli B834(DE3); heparin and gel filtration purification; homodimer; residues about 10-210 seen in crystals
# [2] = biological target: TtgR (Pseudomonas putida, UniProt Q9AIU0, R176G); experiment: biochemical
# [3] = biological target: T1, TtgR; experiment: X-ray crystal structure of complex; conditions: general binding site, 2 per dimer; co-crystal, 2.4 Å
Structure (SMILES),Kd [1] [µM],Kd [2] [µM],X-ray crystal structure of complex [3]
O=C(CCc1ccc(O)cc1)c1c(O)cc(O)cc1O [phloretin],0.05 ± 0.01,9.2 ± 0.5,
O=c1c(O)c(-c2ccc(O)c(O)c2)oc2cc(O)cc(O)c12 [quercetin],,,Both effectors bind at similar locations to the hydrophobic binding site as tetracycline and chloramphenicol
